Earlier results, collected in patent US9981985B2, “Pharmaceutical formulations containing 3-(4-cinnamyl-l-piperazinyl) amino derivatives of 3-formylrifamycin SV and 3-formylrifamycin S and a process of their preparation” (Adipharm EAD, priority 2012, dated 2018).

Tests used:
[1] = in vivo tests, in comparison to rifampicin; from U.S. Pat. No. 5,095,108
[2] = in vivo
[3] = from U.S. Pat. No. 5,095,108
[4] = in vivo; remark: listed apart in the source

Compound | therapeutic effect [1] | serum half-life [2] | acute toxicity [3] | pharmacokinetic properties [4] | resorption [4]
CO[C@H]1/C=C/O[C@@]2(C)Oc3c(C)c(O)c4c(O)c(c(/C=N/N5CCN(C/C=C/c6ccccc6)CC5)c(O)c4c3C2=O)NC(=O)/C(C)=C\C=C\[C@H](C)[C@H](O)[C@@H](C)[C@@H](O)[C@@H](C)[C@H](OC(C)=O)[C@@H]1C [Ia, 3-(4-cinnamyl-1-piperazinyl)-iminomethyl rifamycin SV] | higher therapeutic effect in comparison to rifampicin | considerably longer | low |  | 
sodium salt of 3-(4-cinnamyl-1-piperazinyl)-iminomethyl rifamycin SV [Compound Ib] |  |  |  | better | faster
